Measurements from ChEMBL document CHEMBL5338818, “Discovery of the First Potent, Selective, and In Vivo Efficacious Polo-like Kinase 4 Proteolysis Targeting Chimera Degrader for the Treatment of TRIM37-Amplified Breast Cancer” (J Med Chem, 2023).

How the values were obtained:
[1] = biological target: T1, Protein cereblon/Serine/threonine-protein kinase PLK4 (Homo sapiens, UniProt O00444+Q96SW2); experiment: Protac activity at CRBN/PLK4 in human MCF7 cells at 10 uM incubated for 48 hrs by Western blot analysis; assay type: cell-based
T1 sequence (Q96SW2 whole entry, looked up, one chain of several): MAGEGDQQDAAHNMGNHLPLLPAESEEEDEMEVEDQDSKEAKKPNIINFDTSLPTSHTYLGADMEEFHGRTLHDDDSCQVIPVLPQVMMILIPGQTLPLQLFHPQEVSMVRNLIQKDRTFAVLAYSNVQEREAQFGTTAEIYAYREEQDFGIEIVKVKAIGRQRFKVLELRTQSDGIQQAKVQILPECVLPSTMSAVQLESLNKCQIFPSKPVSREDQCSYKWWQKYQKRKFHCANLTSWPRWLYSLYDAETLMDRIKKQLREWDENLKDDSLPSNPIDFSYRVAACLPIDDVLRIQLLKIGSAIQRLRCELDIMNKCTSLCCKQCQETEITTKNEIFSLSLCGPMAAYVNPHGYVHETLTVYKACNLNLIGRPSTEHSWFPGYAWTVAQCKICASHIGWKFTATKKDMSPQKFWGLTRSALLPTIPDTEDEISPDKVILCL

MCF7 = experiment: Antiproliferative activity against human MCF7 cells incubated for 5 days by CCK-8 assay; conditions: MCF7, 120 h
[2] = biological target: T2, Serine/threonine-protein kinase PLK4 (Homo sapiens, UniProt O00444); experiment: Inhibition of PLK4 (unknown origin) incubated for 1 hr in presence of kinase tracer 236 by FRET assay
T2 sequence (O00444 whole entry): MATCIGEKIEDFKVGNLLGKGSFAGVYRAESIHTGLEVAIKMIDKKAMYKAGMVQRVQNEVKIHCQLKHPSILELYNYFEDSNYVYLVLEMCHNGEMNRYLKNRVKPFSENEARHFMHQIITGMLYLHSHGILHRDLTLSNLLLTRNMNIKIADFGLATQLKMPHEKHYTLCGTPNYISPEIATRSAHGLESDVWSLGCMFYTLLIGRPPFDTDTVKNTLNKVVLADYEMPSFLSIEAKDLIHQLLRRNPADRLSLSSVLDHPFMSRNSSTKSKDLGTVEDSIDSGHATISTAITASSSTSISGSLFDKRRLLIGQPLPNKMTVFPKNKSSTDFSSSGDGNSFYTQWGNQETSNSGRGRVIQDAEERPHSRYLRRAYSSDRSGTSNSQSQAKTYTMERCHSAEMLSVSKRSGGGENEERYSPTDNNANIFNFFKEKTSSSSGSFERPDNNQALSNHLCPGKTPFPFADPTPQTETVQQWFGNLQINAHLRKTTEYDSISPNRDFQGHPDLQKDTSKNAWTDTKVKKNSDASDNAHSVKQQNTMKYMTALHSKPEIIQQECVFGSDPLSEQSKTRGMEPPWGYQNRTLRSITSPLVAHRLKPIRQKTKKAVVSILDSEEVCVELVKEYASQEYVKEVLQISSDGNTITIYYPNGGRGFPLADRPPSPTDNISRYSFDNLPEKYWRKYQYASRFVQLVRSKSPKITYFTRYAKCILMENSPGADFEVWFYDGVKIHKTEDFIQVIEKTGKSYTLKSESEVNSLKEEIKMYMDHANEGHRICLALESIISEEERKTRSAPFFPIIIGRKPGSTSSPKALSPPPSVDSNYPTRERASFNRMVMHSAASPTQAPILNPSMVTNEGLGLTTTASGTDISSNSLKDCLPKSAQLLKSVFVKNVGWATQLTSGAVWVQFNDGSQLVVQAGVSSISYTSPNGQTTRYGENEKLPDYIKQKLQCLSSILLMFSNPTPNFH

[3] = biological target: T1, Protein cereblon/Serine/threonine-protein kinase PLK4; experiment: Protac activity at CRBN/PLK4 in human MCF7 cells at 1 uM incubated for 48 hrs by Western blot analysis; assay type: cell-based
[4] = biological target: T1, Protein cereblon/Serine/threonine-protein kinase PLK4; experiment: Protac activity at CRBN/PLK4 in human MCF7 cells at 0.1 uM incubated for 48 hrs by Western blot analysis; assay type: cell-based

Row | Structure (SMILES) | Activity [1] [%] | IC50 (MCF7) [nM] | IC50 [2] [nM] | Activity [3] [%] | Activity [4] [%]
1 | Cc1cc(Nc2nc(NCc3ccc(F)cc3F)nc3c2cnn3C2CCN(C(=O)c3ccc(C4CCN(c5ccc6c(c5)C(=O)N(C5CCC(=O)NC5=O)C6=O)CC4)cc3)CC2)n[nH]1 (stereo unspecified) | 69.9 | 2500 | 82.7 | 61.4 | 50.5
2 | Cc1cc(Nc2nc(NCc3ccc(F)cc3F)nc3c2cnn3C2CCN(C(=O)CC3CCN(c4ccc5c(c4)C(=O)N(C4CCC(=O)NC4=O)C5=O)CC3)CC2)n[nH]1 (stereo unspecified) | – | 2460 | 19.1 | 51 | 46.2
3 | Cc1cc(Nc2nc(NCc3ccc(F)cc3F)nc3c2cnn3C2CCN(CC3CN(c4ccc5c(c4)C(=O)N(C4CCC(=O)NC4=O)C5=O)C3)CC2)n[nH]1 (stereo unspecified) | 42.2 | – | 10.1 | 31.1 | 2.33
4 | Cc1cc(Nc2nc(NCc3ccc(F)cc3F)nc3c2cnn3C2CCN(C(=O)CCCCCCCCCCCCCOc3ccc4c(c3)C(=O)N(C3CCC(=O)NC3=O)C4=O)CC2)n[nH]1 (stereo unspecified) | 35.9 | – | 154 | 22.8 | 11.6
5 | Cc1cc(Nc2nc(NCc3ccc(F)cc3F)nc3c2cnn3C2CCN(C(=O)CC3CN(c4ccc5c(c4)C(=O)N(C4CCC(=O)NC4=O)C5=O)C3)CC2)n[nH]1 (stereo unspecified) | – | 510 | 12.9 | 70.4 | 47.7
6 | Cc1cc(Nc2nc(NCc3ccc(F)cc3F)nc3c2cnn3C2CCN(C(=O)CCCCCCCCCOc3ccc4c(c3)C(=O)N(C3CCC(=O)NC3=O)C4=O)CC2)n[nH]1 (stereo unspecified) | 23.6 | – | 1080 | 103 | 2.81
7 | Cc1cc(Nc2nc(NCc3ccc(F)cc3F)nc3c2cnn3C2CCN(C(=O)CCCCCCOc3ccc4c(c3)C(=O)N(C3CCC(=O)NC3=O)C4=O)CC2)n[nH]1 (stereo unspecified) | 68.9 | 220 | 9.1 | 55.3 | 31.7
8 | Cc1cc(Nc2nc(NCc3ccc(F)cc3F)nc3c2cnn3C2CCN(C(=O)C3CCN(c4ccc5c(c4)C(=O)N(C4CCC(=O)NC4=O)C5=O)C3)CC2)n[nH]1 (stereo unspecified) | 66.8 | 260 | 5.5 | 56.1 | 36.7
9 | Cc1cc(Nc2nc(NCc3ccc(F)cc3F)nc3c2cnn3C2CCN(CC3CCN(c4ccc5c(c4)C(=O)N(C4CCC(=O)NC4=O)C5=O)C3)CC2)n[nH]1 (stereo unspecified) | 26.1 | – | 13.6 | 8.91 | 3.54
10 | Cc1cc(Nc2nc(NCc3ccc(F)cc3F)nc3c2cnn3C2CCN(C(=O)CCOCCOc3ccc4c(c3)C(=O)N(C3CCC(=O)NC3=O)C4=O)CC2)n[nH]1 (stereo unspecified) | 19.7 | – | 3.6 | 13.4 | 5.68
11 | Cc1cc(Nc2nc(NCc3ccc(F)cc3F)nc3c2cnn3C2CCN(C(=O)CC3CCN(c4ccc5c(c4)C(=O)N(C4CCC(=O)NC4=O)C5=O)C3)CC2)n[nH]1 (stereo unspecified) | – | – | 8.1 | 48.9 | 39.2
12 | Cc1cc(Nc2nc(NCc3ccc(F)cc3F)nc3c2cnn3C2CCN(C(=O)CCCCCCCCCCCCCCCOc3ccc4c(c3)C(=O)N(C3CCC(=O)NC3=O)C4=O)CC2)n[nH]1 (stereo unspecified) | 43.5 | – | 121 | 37.8 | 24.1
13 | Cc1cc(Nc2nc(NCc3ccc(F)cc3F)nc3c2cnn3C2CCN(C(=O)C3CN(c4ccc5c(c4)C(=O)N(C4CCC(=O)NC4=O)C5=O)C3)CC2)n[nH]1 (stereo unspecified) | 73.5 | 250 | 18.9 | 52.2 | 46.3
14 | Cc1cc(Nc2nc(NCc3ccc(F)cc3F)nc3c2cnn3C2CCN(C(=O)COCCOCCOc3ccc4c(c3)C(=O)N(C3CCC(=O)NC3=O)C4=O)CC2)n[nH]1 (stereo unspecified) | 38.5 | – | 9.4 | 30.3 | 24.6
15 | Cc1cc(Nc2nc(NCc3ccc(F)cc3F)nc3c2cnn3C2CCN(Cc3ccc(C4CCN(c5ccc6c(c5)C(=O)N(C5CCC(=O)NC5=O)C6=O)CC4)cc3)CC2)n[nH]1 (stereo unspecified) | 7.32 | – | 106 | 3.11 | 1.05
16 | Cc1cc(Nc2nc(NCc3ccc(F)cc3F)nc3c2cnn3C2CCN(C(=O)CCCCCCCCCCCOc3ccc4c(c3)C(=O)N(C3CCC(=O)NC3=O)C4=O)CC2)n[nH]1 (stereo unspecified) | 21.7 | – | 531 | 13.2 | 4.29
17 | Cc1cc(Nc2nc(NCc3ccc(F)cc3F)nc3c2cnn3C2CCNCC2)n[nH]1 | – | 650 | – | – | –
18 | Cc1cc(Nc2nc(NCc3ccc(F)cc3F)nc3c2cnn3C2CCN(C(=O)CCCCCCCCCCCCCCCCCOc3ccc4c(c3)C(=O)N(C3CCC(=O)NC3=O)C4=O)CC2)n[nH]1 (stereo unspecified) | 58.1 | – | 19.6 | 46.8 | 20.2
19 | Cc1cc(Nc2nc(NCc3ccc(F)cc3F)nc3c2cnn3C2CCN(C(=O)COCCOc3ccc4c(c3)C(=O)N(C3CCC(=O)NC3=O)C4=O)CC2)n[nH]1 (stereo unspecified) | 28.3 | – | 1.9 | 5.34 | 2.13
20 | Cc1cc(Nc2nc(NCc3ccc(F)cc3F)nc3c2cnn3C2CCN(CC3CC4(C3)CN(c3ccc5c(c3)C(=O)N(C3CCC(=O)NC3=O)C5=O)C4)CC2)n[nH]1 (stereo unspecified) | – | – | 42.3 | 6.07 | 4.12
21 | Cc1cc(Nc2nc(NCc3ccc(F)cc3F)nc3c2cnn3C2CCN(C(=O)CCCCCCCOc3ccc4c(c3)C(=O)N(C3CCC(=O)NC3=O)C4=O)CC2)n[nH]1 (stereo unspecified) | 50.3 | – | 42.2 | 38.9 | 30.2
22 | Cc1cc(Nc2nc(NCc3ccc(F)cc3F)nc3c2cnn3C2CCN(CC3CCN(c4ccc5c(c4)C(=O)N(C4CCC(=O)NC4=O)C5=O)CC3)CC2)n[nH]1 (stereo unspecified) | 19.2 | – | 3.1 | 8.64 | 2.16
23 | Cc1cc(Nc2nc(NCc3ccc(F)cc3F)nc3c2cnn3C2CCN(C(=O)CC3CC4(C3)CN(c3ccc5c(c3)C(=O)N(C3CCC(=O)NC3=O)C5=O)C4)CC2)n[nH]1 (stereo unspecified) | 24.3 | – | 61.1 | 5.49 | 1.84
24 | Cc1cc(Nc2nc(NCc3ccc(F)cc3F)nc3c2cnn3C2CCN(C(=O)COc3ccc4c(c3)C(=O)N(C3CCC(=O)NC3=O)C4=O)CC2)n[nH]1 (stereo unspecified) | 43.9 | – | 5.6 | 28.5 | 25.3
25 | Cc1cc(Nc2nc(NCc3ccc(F)cc3F)nc3c2cnn3C2CCN(C(=O)CCCCCOc3ccc4c(c3)C(=O)N(C3CCC(=O)NC3=O)C4=O)CC2)n[nH]1 (stereo unspecified) | 57.7 | – | 5.5 | 46.7 | 31.3
26 | Cc1cc(Nc2nc(NCc3ccc(F)cc3F)nc3c2cnn3C2CCN(C(=O)CCOCCOCCCOc3ccc4c(c3)C(=O)N(C3CCC(=O)NC3=O)C4=O)CC2)n[nH]1 (stereo unspecified) | 52.2 | – | 37.9 | 46.4 | 29.1
27 | Cc1cc(Nc2nc(NCc3ccc(F)cc3F)nc3c2cnn3C2CCN(C(=O)C3CC4(C3)CN(c3ccc5c(c3)C(=O)N(C3CCC(=O)NC3=O)C5=O)C4)CC2)n[nH]1 (stereo unspecified) | 4.01 | – | 75.2 | 2.39 | 0.28
28 | Cc1cc(Nc2nc(NCc3ccc(F)cc3F)nc3c2cnn3C2CCN(C(=O)Cc3ccc(N4CCN(c5ccc6c(c5)C(=O)N(C5CCC(=O)NC5=O)C6=O)CC4)cc3)CC2)n[nH]1 (stereo unspecified) | – | 6980 | 216 | 57.6 | 40.1
